Patent publication US12138256B2, “Treatment of cardiopulmonary disorders” (Bayer Aktiengesellschaft, priority 2021, dated 2024)
Where “and” joins values, the source holds several entries; their conditions need not be identical. Equal values may be shown once.

Test system: thromboxane analog U46619 induced PAH in minipigs
Test: Haemodynamics (PAP, BP) in the anesthetized thromboxane challenged PAH minipig after inhaled (nebulized) application (C-2.1)
Type: in vivo, Göttingen minipig
Details: for % changes in BP vs baseline / % changes in PAP vs baseline: inhaled 30 μg/kg
Procedure, shortened: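 Anesthetized, ventilated Göttingen minipigs (2-6 kg) given continuous infusion (0.3-0.75 μg/kg/min) to raise mean PAP above 25 mmHg, dosing starting after a 30 min plateau. Compound in 1% DMSO/0.2% citric acid, pH 8, nebulized via Aeroneb Pro into the inspiratory arm (~7 min; stock 300 μg/kg). PAP by Swan-Ganz catheter, BP via carotid catheter.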

O=C(O)CCCCN(CCc1cc(F)ccc1OCc1ccc(-c2nc3cc(Cl)ccc3o2)cc1)C1CCCc2nc(C(=O)O)ccc21 (single isomer, unassigned) [comparative example 3, (5)-{(4-carboxybutyl)[2-(2-{[4-(5-chloro-1,3-benzoxazol-2-yl)benzyl]oxy}-5-fluorophenyl)ethyl]amino}-5,6,7,8-tetrahydroquinoline-2-carboxylic acid]
time of maximum effect on PAP (after inhaled application (nebulization), comparative example 11 30 μg/kg, Cinaciguat 3 and 10 μg/kg, Riociguat 100 μg/kg, comparative example 3 30 μg/kg): 30 min
duration of action (PAP decrease) (after inhaled application (nebulization), comparative example 11 30 μg/kg, Cinaciguat 3 and 10 μg/kg, Riociguat 100 μg/kg, comparative example 3 30 μg/kg, observation interval 240 min): 120 min
% changes in BP vs baseline (0 min vs. start inhalation): 100% and 99%
% changes in PAP vs baseline (0 min vs. start inhalation): 100% and 99%
% changes in BP vs baseline (10 min vs. start inhalation): 98% and 93%
% changes in PAP vs baseline (10 min vs. start inhalation): 103% and 99%
% changes in BP vs baseline (20 min vs. start inhalation): 94% and 87%
% changes in PAP vs baseline (20 min vs. start inhalation): 103% and 97%
% changes in BP vs baseline (30 min vs. start inhalation): 95% and 84%
% changes in PAP vs baseline (30 min vs. start inhalation): 104% and 98%
% changes in BP vs baseline (40 min vs. start inhalation): 97% and 81%
% changes in PAP vs baseline (40 min vs. start inhalation): 105% and 95%
% changes in BP vs baseline (50 min vs. start inhalation): 98% and 86%
% changes in PAP vs baseline (50 min vs. start inhalation): 106% and 95%
% changes in BP vs baseline (60 min vs. start inhalation): 101% and 88%
% changes in PAP vs baseline (60 min vs. start inhalation): 108% and 94%
% changes in BP vs baseline (70 min vs. start inhalation): 103% and 88%
% changes in PAP vs baseline (70 min vs. start inhalation): 108% and 93%
% changes in BP vs baseline (80 min vs. start inhalation): 104% and 92%
% changes in PAP vs baseline (80 min vs. start inhalation): 110% and 96%
% changes in BP vs baseline (90 min vs. start inhalation): 106% and 95%
% changes in PAP vs baseline (90 min vs. start inhalation): 110% and 94%
% changes in BP vs baseline (100 min vs. start inhalation): 107% and 96%
% changes in PAP vs baseline (100 min vs. start inhalation): 111% and 93%
% changes in BP vs baseline (110 min vs. start inhalation): 109% and 100%
% changes in PAP vs baseline (110 min vs. start inhalation): 111% and 93%
% changes in BP vs baseline (120 min vs. start inhalation): 111% and 107%
% changes in PAP vs baseline (120 min vs. start inhalation): 112% and 95%
% changes in BP vs baseline (130 min vs. start inhalation): 111% and 104%
% changes in PAP vs baseline (130 min vs. start inhalation): 112% and 92%
% changes in BP vs baseline (140 min vs. start inhalation): 112% and 103%
% changes in PAP vs baseline (140 min vs. start inhalation): 113% and 93%
% changes in BP vs baseline (150 min vs. start inhalation): 112% and 107%
% changes in PAP vs baseline (150 min vs. start inhalation): 113% and 93%
% changes in BP vs baseline (160 min vs. start inhalation): 112% and 110%
% changes in PAP vs baseline (160 min vs. start inhalation): 112% and 92%
% changes in BP vs baseline (170 min vs. start inhalation): 113% and 108%
% changes in PAP vs baseline (170 min vs. start inhalation): 110% and 92%
% changes in BP vs baseline (180 min vs. start inhalation): 113% and 108%
% changes in PAP vs baseline (180 min vs. start inhalation): 112% and 93%
% changes in BP vs baseline (190 min vs. start inhalation): 113%
% changes in PAP vs baseline (190 min vs. start inhalation): 111% and 93%
% changes in BP vs baseline (200 min vs. start inhalation): 112% and 110%
% changes in PAP vs baseline (200 min vs. start inhalation): 110% and 93%
% changes in BP vs baseline (210 min vs. start inhalation): 112% and 109%
% changes in PAP vs baseline (210 min vs. start inhalation): 109% and 93%
% changes in BP vs baseline (220 min vs. start inhalation): 113%
% changes in PAP vs baseline (220 min vs. start inhalation): 109% and 96%
% changes in BP vs baseline (230 min vs. start inhalation): 111% and 112%
% changes in PAP vs baseline (230 min vs. start inhalation): 109% and 94%
% changes in BP vs baseline (240 min vs. start inhalation): 110% and 112%
% changes in PAP vs baseline (240 min vs. start inhalation): 109% and 94%
% changes in BP vs baseline (−5 min vs. start inhalation): 99% and 96%
% changes in PAP vs baseline (−5 min vs. start inhalation): 99%
lung selectivity with respect to the hemodynamic effect (inhaled, 30 μg/kg): good lung selectivity
